The text below walks through data of US20250115583A1, “BICYCLIC INDAZOLE GLUCOCORTICOID RECEPTOR ANTAGONISTS” (Corcept Therapeutics Incorporated, priority 2021, published 2025).

In the test the target is glucocorticoid receptor (Homo sapiens (Human), UniProt P04150). As to the kind of experiment: HepG2 TAT assay: inhibition of dexamethasone-induced tyrosine aminotransferase (TAT) activity. The test is classed as cell-based. Particulars: HepG2 cells, challenge of 100 nM dexamethasone, 18-24 hr; IC50 converted to Ki by Cheng and Prusoff equation. The gist of the method:
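Cells lysed 15 min at 4 °C; TAT enzyme reaction 2 h at 37 °C, stopped with KOH, 30 min further at 37 °C. Inhibition fitted to 4-parameter logistic.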

Sequence of glucocorticoid receptor (P04150 whole entry): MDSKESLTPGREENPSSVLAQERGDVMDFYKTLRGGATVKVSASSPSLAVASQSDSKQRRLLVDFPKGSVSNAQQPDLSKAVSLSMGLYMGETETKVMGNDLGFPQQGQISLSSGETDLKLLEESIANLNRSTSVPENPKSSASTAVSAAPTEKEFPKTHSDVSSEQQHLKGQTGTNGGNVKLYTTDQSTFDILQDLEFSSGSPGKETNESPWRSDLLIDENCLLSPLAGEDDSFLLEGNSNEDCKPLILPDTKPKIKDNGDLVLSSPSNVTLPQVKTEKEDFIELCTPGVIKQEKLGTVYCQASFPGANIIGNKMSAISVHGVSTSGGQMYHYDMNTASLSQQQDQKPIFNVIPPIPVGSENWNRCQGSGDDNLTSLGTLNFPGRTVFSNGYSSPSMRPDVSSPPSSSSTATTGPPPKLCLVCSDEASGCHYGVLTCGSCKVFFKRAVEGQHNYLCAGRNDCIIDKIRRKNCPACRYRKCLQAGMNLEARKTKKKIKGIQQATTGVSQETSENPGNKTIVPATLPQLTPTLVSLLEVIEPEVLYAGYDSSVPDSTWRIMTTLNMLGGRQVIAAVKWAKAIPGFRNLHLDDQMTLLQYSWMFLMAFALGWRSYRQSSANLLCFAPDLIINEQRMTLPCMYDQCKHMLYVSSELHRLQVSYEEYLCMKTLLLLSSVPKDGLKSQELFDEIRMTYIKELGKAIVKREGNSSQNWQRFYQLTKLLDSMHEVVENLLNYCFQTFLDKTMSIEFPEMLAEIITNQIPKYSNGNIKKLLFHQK

One may read the Ki as a measure of affinity in units of concentration, obtained from inhibition or displacement. Lower therefore signals higher affinity. The compound `Cc1cc2c(cnn2-c2ccc(F)cc2)cc1C12CC(c3ccccc3)CC1CN(S(C)(=O)=O)C2` (stereo not shown) [Example 46, 1-(4-fluorophenyl)-6-methyl-5-(2-(methylsulfonyl)-5-phenylhexahydrocyclopenta[c]pyrrol-3a(1H)-yl)-1H-indazole] returned a Ki of 87 nM.
`Cc1cc2c(cnn2-c2ccc(F)cc2)cc1[C@@]12CN(S(=O)(=O)C3CCC3)C[C@@H]1[C@H]2c1ccccc1` (stereo in doubt) [Example 139, 5-(3-(cyclobutylsulfonyl)-6-phenyl-3-azabicyclo[3.1.0]hexan-1-yl)-1-(4-fluorophenyl)-6-methyl-1H-indazole] came in with a Ki of 45 nM.
As for `Cc1cc2c(cnn2-c2ccc(F)cc2)cc1[C@@]12CN(C(=O)C(C)C)C[C@@H]1[C@H]2c1ccccc1` (single isomer, unassigned) [Example 113, 1-(1-(1-(4-fluorophenyl)-6-methyl-1H-indazol-5-yl)-6-phenyl-3-azabicyclo[3.1.0]hexan-3-yl)-2-methylpropan-1-one], the figure is 58 nM; as for `Cc1cc2c(cnn2-c2ccc(F)cc2)cc1[C@@]12CN(C(=O)c3cccc(C(F)F)c3)C[C@@H]1[C@H]2c1ccccc1` (stereo in doubt) [Example 143, (3-(difluoromethyl)phenyl)(1-(1-(4-fluorophenyl)-6-methyl-1H-indazol-5-yl)-6-phenyl-3-azabicyclo[3.1.0]hexan-3-yl)methanone], 25 nM.
As for `CCS(=O)(=O)N1C[C@@H]2[C@@H](c3ccccc3)[C@]2(c2cc3cnn(-c4ccc(F)cc4)c3cc2C)C1` [Example 94], the figure is 31 nM; as for `Cc1cc2c(cnn2-c2ccc(F)cc2)cc1C12CN(S(C)(=O)=O)CC1CC(O)(c1ccccc1)C2` (stereo not shown) [Example 9], 130 nM.
As for `Cc1cc2c(cnn2-c2ccc(F)cc2)cc1[C@@]12CN(C(=O)c3ccccc3)C[C@@H]1[C@@]2(C)c1ccccc1` (stereo in doubt) [Example 183, (1-(1-(4-fluorophenyl)-6-methyl-1H-indazol-5-yl)-6-methyl-6-phenyl-3-azabicyclo[3.1.0]hexan-3-yl)(phenyl)methanone], the figure is 37 nM; as for `Cc1cc2c(cnn2-c2ccc(F)cc2)cc1[C@@]12CN(C(=O)N3CCOCC3)C[C@@H]1[C@H]2c1ccccc1` (stereo in doubt) [Example 121, (1-(1-(4-fluorophenyl)-6-methyl-1H-indazol-5-yl)-6-phenyl-3-azabicyclo[3.1.0]hexan-3-yl)(morpholino)methanone], 49 nM.
For the compound `Cc1cc2c(cnn2-c2ccc(F)cc2)cc1C12CN(S(=O)(=O)c3cnn(C)n3)CC1C2CO` (stereo not shown) [Example 47, (1-(1-(4-fluorophenyl)-6-methyl-1H-indazol-5-yl)-3-((2-methyl-2H-1,2,3-triazol-4-yl)sulfonyl)-3-azabicyclo[3.1.0]hexan-6-yl)methanol], the Ki came out at 270 nM.
Compound `Cc1cc2c(cnn2-c2ccc(F)cc2)cc1[C@]12CN(S(=O)(=O)c3cnn(C)n3)C[C@H]1[C@@H]2C(=O)Nc1ccccc1` [Example 62] showed a Ki of 38 nM.
Compound `Cc1cc2c(cnn2-c2ccc(F)cc2)cc1[C@@]12CN(C(=O)c3ccccc3)C[C@@H]1[C@H]2c1ccccc1` (stereo in doubt) [Example 110, (1-(1-(4-fluorophenyl)-6-methyl-1H-indazol-5-yl)-6-phenyl-3-azabicyclo[3.1.0]hexan-3-yl)(phenyl)methanone] returned an inhibition constant Ki of 23 nM.
In turn, `Cc1cc2c(cnn2-c2ccc(F)cc2)cc1[C@@]12CN(C(=O)c3cnn(C)c3)C[C@@H]1[C@H]2c1ccccc1` (single isomer, unassigned) [Example 129, (1-(1-(4-fluorophenyl)-6-methyl-1H-indazol-5-yl)-6-phenyl-3-azabicyclo[3.1.0]hexan-3-yl)(1-methyl-1H-pyrazol-4-yl)methanone] came in with a Ki of 37 nM.
`COC1CCN(S(=O)(=O)N2C[C@@H]3[C@@H](c4ccccc4)[C@]3(c3cc4cnn(-c5ccc(F)cc5)c4cc3C)C2)CC1` [Example 109] showed a Ki of 13 nM.
As for `Cc1cc2c(cnn2-c2ccc(F)cc2)cc1[C@@]12CN(S(=O)(=O)c3cnn(C)n3)C[C@@H]1[C@H]2Cn1cccn1` (stereo in doubt) [Example 132, 5-(6-((1H-pyrazol-1-yl)methyl)-3-((2-methyl-2H-1,2,3-triazol-4-yl)sulfonyl)-3-azabicyclo[3.1.0]hexan-1-yl)-1-(4-fluorophenyl)-6-methyl-1H-indazole], the figure is 350 nM; as for `Cc1cc2c(cnn2-c2ccc(F)cc2)cc1[C@@]12CN(C(=O)C3CCC3)C[C@@H]1[C@H]2c1ccccc1` (stereo in doubt) [Example 120, cyclobutyl(1-(1-(4-fluorophenyl)-6-methyl-1H-indazol-5-yl)-6-phenyl-3-azabicyclo[3.1.0]hexan-3-yl)methanone], 52 nM; as for `CCCn1cc(S(=O)(=O)N2C[C@@H]3[C@@H](c4ccccc4)[C@]3(c3cc4cnn(-c5ccc(F)cc5)c4cc3C)C2)cn1` (single isomer, unassigned) [Example 69, 1-(4-fluorophenyl)-6-methyl-5-(6-phenyl-3-((1-propyl-1H-pyrazol-4-yl)sulfonyl)-3-azabicyclo[3.1.0]hexan-1-yl)-1H-indazole], 24 nM.
The figure for `CCCn1cc(S(=O)(=O)N2C[C@@H]3C[C@](OC)(c4ccccc4)C[C@]3(c3cc4cnn(-c5ccc(F)cc5)c4cc3C)C2)cn1` [Example 22] is 32 nM; for `CNC(=O)N1C[C@@H]2[C@@H](c3ccccc3)[C@]2(c2cc3cnn(-c4ccc(F)cc4)c3cc2C)C1` (single isomer, unassigned) [Example 124, 1-(1-(4-fluorophenyl)-6-methyl-1H-indazol-5-yl)-N-methyl-6-phenyl-3-azabicyclo[3.1.0]hexane-3-carboxamide] it is 120 nM.
The figure for `Cc1cc2c(cnn2-c2ccc(F)cc2)cc1[C@@]12CN(C(=O)c3cccc(C(F)(F)F)n3)C[C@@H]1[C@H]2c1ccccc1` (stereo in doubt) [Example 145, (1-(1-(4-fluorophenyl)-6-methyl-1H-indazol-5-yl)-6-phenyl-3-azabicyclo[3.1.0]hexan-3-yl)(6-(trifluoromethyl)pyridin-2-yl)methanone] is 48 nM; for `Cc1cc2c(cnn2-c2ccc(F)cc2)cc1[C@@]12CN(S(C)(=O)=O)C[C@@H]1[C@H]2C(=O)Nc1ccc(F)cn1` [Example 67] it is 84 nM.
As to `Cc1cc2c(cnn2-c2ccc(F)cc2)cc1[C@]12CN(S(=O)(=O)c3cncc(F)c3)C[C@H]1[C@@H]2c1ccccc1` [Example 78], affinity was put at a Ki of 25 nM.
Regarding `Cc1cc2c(cnn2-c2ccc(F)cc2)cc1[C@@]12CN(S(=O)(=O)c3cncs3)C[C@@H]1[C@H]2c1ccccc1` [Example 91], the inhibition constant (Ki) is 22 nM.
The figure for `Cc1cccc(NC(=O)[C@H]2[C@@H]3CN(S(=O)(=O)c4cnn(C)n4)C[C@@]32c2cc3cnn(-c4ccc(F)cc4)c3cc2C)c1` [Example 63] is 88 nM; for `Cc1cc2c(cnn2-c2ccc(F)cc2)cc1[C@@]12CN(S(=O)(=O)N3CCC3)C[C@@H]1[C@H]2c1ccccc1` [Example 105] it is 14 nM; for `Cc1cc2c(cnn2-c2ccc(F)cc2)cc1[C@@]12CN(S(=O)(=O)N3CCCCC3)C[C@@H]1[C@H]2c1ccccc1` [Example 102] it is 26 nM.
The compound `Cc1cc2c(cnn2-c2ccc(F)cc2)cc1[C@@]12CN(S(=O)(=O)c3cnn(C)n3)C[C@@H]1[C@H]2COC(C)C` (stereo in doubt) [Example 51, 1-(4-fluorophenyl)-5-(6-(isopropoxymethyl)-3-((2-methyl-2H-1,2,3-triazol-4-yl)sulfonyl)-3-azabicyclo[3.1.0]hexan-1-yl)-6-methyl-1H-indazole] gave a Ki of 290 nM.
`Cc1cc2c(cnn2-c2ccc(F)cc2)cc1[C@@]12CN(S(=O)(=O)CC3CCOCC3)C[C@@H]1[C@H]2c1ccccc1` [Example 107] showed a Ki of 32 nM.
For `Cc1cc2c(cnn2-c2ccc(F)cc2)cc1C12CN(C(=O)OC(C)(C)C)CC1CC(O)(c1ccccc1)C2` (stereo not shown) [Example 17, tert-butyl 3a-(1-(4-fluorophenyl)-6-methyl-1H-indazol-5-yl)-5-hydroxy-5-phenylhexahydrocyclopenta[c]pyrrole-2(1H)-carboxylate], the Ki turned out to be 42 nM.
Turning to `Cc1cc2c(cnn2-c2ccc(F)cc2)cc1[C@@]12CN(S(=O)(=O)c3cnn(C)n3)C[C@@H]1[C@H]2C(=O)NCC(C)C` [Example 66], the Ki came out at 150 nM.
As for `Cc1cc2c(cnn2-c2ccc(F)cc2)cc1[C@@]12CN(C(=O)c3cccc(C(C)C)n3)C[C@@H]1[C@H]2c1ccccc1` (stereo in doubt) [Example 166, (1-(1-(4-fluorophenyl)-6-methyl-1H-indazol-5-yl)-6-phenyl-3-azabicyclo[3.1.0]hexan-3-yl)(6-isopropylpyridin-2-yl)methanone], the figure is 47 nM; as for `COCCOCCS(=O)(=O)N1C[C@@H]2[C@@H](c3ccccc3)[C@]2(c2cc3cnn(-c4ccc(F)cc4)c3cc2C)C1` (stereo in doubt) [Example 138, 1-(4-fluorophenyl)-5-(3-((2-(2-methoxyethoxy)ethyl)sulfonyl)-6-phenyl-3-azabicyclo[3.1.0]hexan-1-yl)-6-methyl-1H-indazole], 70 nM; as for `Cc1cc2c(cnn2-c2ccc(F)cc2)cc1[C@@]12CN(S(=O)(=O)c3cnn(C)n3)C[C@@H]1[C@H]2c1ccccc1` [Example 71], 15 nM.
The figure for `CCn1ncc(S(=O)(=O)N2C[C@H]3[C@H](c4ccccc4)[C@@]3(c3cc4cnn(-c5ccc(F)cc5)c4cc3C)C2)n1` [Example 74] is 15 nM; for `Cc1cc2c(cnn2-c2ccc(F)cc2)cc1[C@@]12CN(S(=O)(=O)NCC(C)C)C[C@@H]1[C@H]2c1ccccc1` [Example 100] it is 82 nM.
